Source: patent publication US10765114B2, “4-amino-6-(pyridyl and 2-substitutedphenyl)-picolinates and 6-amino-2-(pyridyl and 2-substitutedphenyl)-pyrimidine-4-carboxylates and their use as herbicides” (Dow AgroSciences LLC, priority 2013, dated 2020)
Read-outs that look alike come from different tables or passages of the source.

Key:
[1] = tested on: Key Broadleaf Weed and Crop Species; assay: Post-Emergent Test II (Table 5); type: in vivo; details: post-emergence, 336 h; for pest or weed control at 70 g/ha: application rate 70 (kg ai/ha; footnote: g ai/ha); for pest or weed control at 140 g/ha: application rate 140 (kg ai/ha; footnote: g ai/ha)
Outline: (§1)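 Plants grown in a greenhouse (~15 h photoperiod, 23-29° C day) to first or second true leaf stage were sprayed post-emergence at 187 L/ha with compound in acetone/DMSO-based aqueous spray containing crop oil concentrate and surfactant, applied at a high rate plus ½× to 1/16× serial rates. Injury was scored visually 14 days later, 0-100% versus untreated plants.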

[2] = tested on: Key Grass and Sedge Weeds as well as Grass Crops; assay: Post-Emergent Test II (Table 6); type: in vivo; details: post-emergence, 336 h, 14 days after application; for pest or weed control at 70 g/ha: 70 g ai/ha; for pest or weed control at 140 g/ha: 140 g ai/ha
Outline: as §1

[3] = Abutilon theophrasti, ABUTH: velvetleaf (Abutilon theophrasti), read-out: Visual Growth Reduction (%) 14 Days After Application ABUTH
[4] = Amaranthus retroflexus, AMARE: redroot pigweed (Amaranthus retroflexus), read-out: Visual Growth Reduction (%) 14 Days After Application AMARE
[5] = Brassica napus, BRSSS: oilseed rape, canola (Brassica napus), read-out: Visual Growth Reduction (%) 14 Days After Application BRSSS
[6] = Chenopodium album, CHEAL: lambsquarters (Chenopodium album), read-out: Visual Growth Reduction (%) 14 Days After Application CHEAL
[7] = Euphorbia heterophylla, EPHHL: wild poinsettia (Euphorbia heterophylla), read-out: Visual Growth Reduction (%) 14 Days After Application EPHHL
[8] = Helianthus annuus, HELAN: sunflower (Helianthus annuus), read-out: Visual Growth Reduction (%) 14 Days After Application HELAN
[9] = Viola tricolor, VIOTR: wild pansy (Viola tricolor), read-out: Visual Growth Reduction (%) 14 Days After Application VIOTR
[10] = CYPSS, read-out: Visual Growth Reduction (%) 14 Days After Application CYPSS
[11] = DIGSA: crabgrass (Digitaria sanguinalis), read-out: Visual Growth Reduction (%) 14 Days After Application DIGSA
[12] = ECHSS, read-out: Visual Growth Reduction (%) 14 Days After Application ECHSS
[13] = ORYSS (crop), read-out: Visual Growth Reduction (%) 14 Days After Application ORYSS
[14] = SETFA: giant foxtail (Setaria faberi), read-out: Visual Growth Reduction (%) 14 Days After Application SETFA
[15] = SORVU: grain sorghum (Sorghum vulgare), read-out: Visual Growth Reduction (%) 14 Days After Application SORVU
[16] = TRZSS (crop), read-out: Visual Growth Reduction (%) 14 Days After Application TRZSS
[17] = ZEAMX: maize, corn (Zea mays), read-out: Visual Growth Reduction (%) 14 Days After Application ZEAMX

Row | Structure (SMILES) | pest or weed control at 70 g/ha [1, 3] | pest or weed control at 140 g/ha [1, 3] | pest or weed control at 70 g/ha [1, 4] | pest or weed control at 140 g/ha [1, 4] | pest or weed control at 70 g/ha [1, 5] | pest or weed control at 140 g/ha [1, 5] | pest or weed control at 70 g/ha [1, 6] | pest or weed control at 140 g/ha [1, 6] | pest or weed control at 70 g/ha [1, 7] | pest or weed control at 140 g/ha [1, 7] | pest or weed control at 70 g/ha [1, 8] | pest or weed control at 140 g/ha [1, 8] | pest or weed control at 70 g/ha [1, 9] | pest or weed control at 140 g/ha [1, 9] | pest or weed control at 70 g/ha [2, 11] | pest or weed control at 140 g/ha [2, 11] | pest or weed control at 70 g/ha [2, 12] | pest or weed control at 140 g/ha [2, 12] | pest or weed control at 70 g/ha [2, 13] | pest or weed control at 140 g/ha [2, 13] | further results
1 | COC(=O)c1nc(-c2ccc(I)nc2)c(F)c(N)c1Cl [Compound 54, methyl 4-amino-5-chloro-3-fluoro-6′-Iodo-[2,3′-bipyridine]-6-carboxylate] | 85 to 94% | 85 to 94% | 85 to 94% | 85 to 94% | 85 to 94% | 95 to 100% | 95 to 100% | 95 to 100% | 75 to 84% | 85 to 94% | 85 to 94% | 95 to 100% | 75 to 84% | 85 to 94% | 60 to 74% | 75 to 84% | 75 to 84% | 85 to 94% | 0 to 29% | 0 to 29% | pest or weed control at 70 g/ha [2, 10]: 75 to 84%; pest or weed control at 140 g/ha [2, 10]: 85 to 94%; pest or weed control at 70 g/ha [2, 14]: 60 to 74%; pest or weed control at 140 g/ha [2, 14]: 60 to 74%; pest or weed control at 70 g/ha [2, 15]: 45 to 59%; pest or weed control at 140 g/ha [2, 15]: 60 to 74%; pest or weed control at 70 g/ha [2, 16]: 60 to 74%; pest or weed control at 140 g/ha [2, 16]: 75 to 84%; pest or weed control at 70 g/ha [2, 17]: 45 to 59%; pest or weed control at 140 g/ha [2, 17]: 60 to 74%
2 | COC(=O)c1nc(-c2ccc(Cl)c(F)c2SC)cc(N)c1Cl [Compound 58] | 85 to 94% | 85 to 94% | 85 to 94% | 95 to 100% | 30 to 44% | 60 to 74% | 95 to 100% | 95 to 100% | 0 to 29% | 0 to 29% | 0 to 29% | 75 to 84% | 0 to 29% | 0 to 29% | 0 to 29% | 0 to 29% | 0 to 29% | 0 to 29% | 0 to 29% | 0 to 29% | pest or weed control at 70 g/ha [2, 14]: 0 to 29%; pest or weed control at 140 g/ha [2, 14]: 0 to 29%; pest or weed control at 70 g/ha [2, 15]: 0 to 29%; pest or weed control at 140 g/ha [2, 15]: 0 to 29%; pest or weed control at 70 g/ha [2, 16]: 0 to 29%; pest or weed control at 140 g/ha [2, 16]: 0 to 29%; pest or weed control at 70 g/ha [2, 17]: 0 to 29%; pest or weed control at 140 g/ha [2, 17]: 0 to 29%
3 | COC(=O)c1nc(-c2ccc(Cl)c(OC)c2C(F)F)cc(N)c1Cl [Compound 60, methyl 4-amino-3-chloro-6-(4-chloro-2-(difluoromethyl)-3-methoxyphenyl)picolinate] | 95 to 100% | 95 to 100% | 95 to 100% | 95 to 100% | 60 to 74% | 75 to 84% | 95 to 100% | 95 to 100% | 60 to 74% | 60 to 74% | 85 to 94% | 85 to 94% | 30 to 44% | 30 to 44% | 0 to 29% | 30 to 44% | 0 to 29% | 30 to 44% | 0 to 29% | 0 to 29% | pest or weed control at 70 g/ha [2, 10]: 30 to 44%; pest or weed control at 140 g/ha [2, 10]: 30 to 44%; pest or weed control at 70 g/ha [2, 14]: 0 to 29%; pest or weed control at 140 g/ha [2, 14]: 0 to 29%; pest or weed control at 70 g/ha [2, 15]: 0 to 29%; pest or weed control at 140 g/ha [2, 15]: 45 to 59%; pest or weed control at 70 g/ha [2, 16]: 0 to 29%; pest or weed control at 140 g/ha [2, 16]: 0 to 29%; pest or weed control at 70 g/ha [2, 17]: 0 to 29%; pest or weed control at 140 g/ha [2, 17]: 0 to 29%
